Patent publication US8716355B2, “Hydroxylated tolans and related compounds in the treatment of a cancer” (Kent State University, priority 2007, dated 2014)
Like-named read-outs stand apart in the source and are kept apart here.

What was measured:
[1] = system: MDAH2274; experiment: MTT cytotoxicity, MDAH2274 ovarian cancer cells; format: cell-based, human
Description: As a first step, the antitumor activity of the tolans was assessed against a panel of three cancer cells lines that produce solid tumors upon implantation into animals. DU145 is an androgen-independent prostate cancer cells. T24 is a transitional cell bladder carcinoma cell. MDAH2274 (“MDAH) is an endometroid ovarian adenocarcinoma cell. To assess the selectivity of this antitumor activity, the toxicity of the tolans to normal human fibroblasts (MHRF) was examined.
Cell killing was evaluated using the colorimetric MTT assay. The assay measures the formation of a colored product from a chromogenic precursor, the tetrazole 3-[4,5-dimethylthiazol-2-yl]-2,5 diphenyltetrazolium bromide (MTT). The yellow MTT is reduced to purple formazan in the mitochondria of living cells. A solubilization solution (typically dimethyl sulfoxide or sodium dodecyl sulfate in dilute hydrochloric acid) is added to dissolve the insoluble purple formazan product into a colored solution. The absorbance of this colored solution is quantified by measuring at a certain wavelength (usually between 500 and 600 nm) by a spectrophotometer. […] This MTT assay is used widely to assess the cytotoxicity and selectivity of compounds such as anti-cancer drugs. The assay is suitable for rapid toxicity characterization of a test agent such as a drug formulation. […] A lower CD50 indicates a greater cytotoxic activity (as a lower amount of the agent is needed to achieve a fixed level of cytotoxicity). Two agents can be compared by examining the fold-increase or decrease in their CD50 values.

[2] = system: SKMEL28; experiment: MTT cytotoxicity, SKMEL28 melanoma; format: cell-based; settings: Homo sapiens, SK-MEL-28, 72 h; 3 Days; read-out: CD50 (μM) SKMEL28
Description: Cell killing was evaluated using the colorimetric MTT assay. The assay measures the formation of a colored product from a chromogenic precursor, the tetrazole 3-[4,5-dimethylthiazol-2-yl]-2,5 diphenyltetrazolium bromide (MTT). The yellow MTT is reduced to purple formazan in the mitochondria of living cells. A solubilization solution (typically dimethyl sulfoxide or sodium dodecyl sulfate in dilute hydrochloric acid) is added to dissolve the insoluble purple formazan product into a colored solution. The absorbance of this colored solution is quantified by measuring at a certain wavelength (usually between 500 and 600 nm) by a spectrophotometer. The amount of purple formazan product generated is proportional to the number of viable cells (Mosmann, T., 1983, J. Immunol. Meth. 65:55-63; Wilson, A. P., Cytotoxicity and Viability Assays. In: Animal Cell Culture: A Practical Approach, 3rd ed. (Masters, J R W, ed.) Oxford University Press: Oxford, Vol. 1, pp. 175-219. 2000). This MTT assay is used widely to assess the cytotoxicity and selectivity of compounds such as anti-cancer drugs. The assay is suitable for rapid toxicity characterization of a test agent such as a drug formulation. […] A lower CD50 indicates a greater cytotoxic activity (as a lower amount of the agent is needed to achieve a fixed level of cytotoxicity). […]

[3] = molecular target: T1, ovine COX-1 (Ovis aries, UniProt P05979); experiment: COX Inhibitor Screening Assay, COX1; format: biochemical
T1 construct: purchased Cayman Chemical 560131
Description: The indicated concentration of these agents were tested in the presence of COX1. COX activity was quantified by measuring the amount of final product PGF2α which competed with acetylcholinesterase (AChE)-linked PGs for binding to its antibody immobilized to the surface of microplate wells. Color was developed by adding an AChE substrate and was inversely related to the amount of PGF2α±SD of triplicate determinations.
The prostanoid product can be quantified via enzyme immunoassay (EIA) using a broadly specific antibody that binds to all the major prostaglandin compounds. COX assays from Cayman Chemical, Ann Arbor, Mich., are more accurate and reliable than assays based on peroxidase inhibition. The Cayman COX Inhibitor Screening Assay includes both ovine COX-1 and human recombinant COX-2 enzymes in order to screen isozyme-specific inhibitors. This assay is an excellent tool which can be used for general inhibitor screening.
COX was assayed by measuring production of PGF2, generated by stannous chloride (SnCl2) in the presence of PGH2 using a commercial kit from Cayman Chemical, (Ovine COX Inhibitor Screening Assay, Catalog #560131). […]
A 96-well plate coated with mouse anti-rabbit IgG was then used and various components were added—assay standards, nonspecific binding controls, maximum binding controls, and the inhibitor dilutions—along with the tracer and antiserum. The plate was incubated at room temperature for 18 hours, washed five times with wash buffer, developed with Ellman's Reagent and the colored reaction product was read on an automatic microplate reader at 410 nm. The IC50 for the respective COX enzyme was graphically determined from a three-point curve. […]
The intensity of color was inversely proportional to the amount of free prostaglandins quantitatively representing the COX enzymatic activity, under the influence of the test compounds.
As noted, COX activity was quantified by measuring the amount of final product PGF2-α which competed with AChE-linked PGs for binding to an antibody immobilized to microplates. […]

[4] = system: rat erythrocyte (RBC); settings: cited from earlier work
[5] = Homo sapiens, 24 h, MTT, 1 day incubation, read-out: CD50 against MDAH, compound tested individually
[6] = Homo sapiens, 48 h, MTT, 2 days incubation, read-out: CD50 against MDAH, compound tested individually
[7] = Homo sapiens, 72 h, MTT, 3 days incubation, read-out: CD50 against MDAH, compound tested individually
[8] = MTT, 1 day incubation, read-out: CD50 against MDAH, compound tested individually

T1 sequence (P05979 25-600): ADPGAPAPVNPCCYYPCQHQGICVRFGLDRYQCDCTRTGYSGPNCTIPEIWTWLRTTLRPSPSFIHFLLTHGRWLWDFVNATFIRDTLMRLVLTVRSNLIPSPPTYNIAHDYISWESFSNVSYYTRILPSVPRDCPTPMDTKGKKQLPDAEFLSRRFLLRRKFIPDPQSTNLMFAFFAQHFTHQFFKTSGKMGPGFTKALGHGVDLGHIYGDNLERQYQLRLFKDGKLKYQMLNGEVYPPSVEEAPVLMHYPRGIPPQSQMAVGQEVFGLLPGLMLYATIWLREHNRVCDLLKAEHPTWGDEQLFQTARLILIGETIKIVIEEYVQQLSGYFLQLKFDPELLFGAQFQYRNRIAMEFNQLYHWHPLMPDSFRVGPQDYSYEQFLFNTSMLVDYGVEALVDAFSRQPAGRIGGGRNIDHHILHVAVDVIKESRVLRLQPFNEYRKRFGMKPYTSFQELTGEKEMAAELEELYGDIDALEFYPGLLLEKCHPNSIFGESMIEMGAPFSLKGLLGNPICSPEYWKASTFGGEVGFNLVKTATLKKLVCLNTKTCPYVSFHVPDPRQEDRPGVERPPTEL

Structure (SMILES) | IC50 [1, 5] [µM] | IC50 [1, 6] [µM] | IC50 [1, 7] [µM] | IC50 [1, 8] [µM] | IC50 ([1]; MTT, 3 days incubation, read-out: CD50 against MDAH, compound tested individually) [µM] | IC50 [2] [µM] | COX1 enzymatic activity ([3]; high end of 10 μM to 200 μM) | COX1 enzymatic activity, % of initial activity ([3]; low end of 10 μM to 200 μM) [%] | Inhibition (%) of RBC hemolysis induced by H2O2 at 4 μM [4] [%] | Fold more potent in killing MDAH2274 cells vs. control MHRF fibroblasts [1] [fold] | IC50 ([1]; Homo sapiens, 24 h, VC:KST-201 400:1, 1 day, read-out: CD50 (μM) of each Compound tested in combination, MDAH 2274) [µM] | IC50 ([1]; Homo sapiens, 48 h, VC:KST-201 400:1, 2 days, read-out: CD50 (μM) of each Compound tested in combination, MDAH 2274) [µM] | IC50 ([1]; Homo sapiens, 72 h, VC:KST-201 400:1, 3 days, read-out: CD50 (μM) of each Compound tested in combination, MDAH 2274) [µM] | IC50 ([1]; MTT, 1 day incubation, listed as Hydroxytolan, read-out: CD50 against MDAH, compound tested individually) [µM] | IC50 ([1]; MTT, 1 day incubation, listed as hydroxytolan, read-out: CD50 against MDAH, compound tested individually) [µM] | Fold more toxic to MDAH 2274 ovarian cancer cells than resveratrol ([1]; Table 15 vs Table 14) [fold] | Increase of cytotoxic potency in the combination, MDAH 2274 ([1]; VC:KST-201 400:1, 1 day) | Inhibition of COX1 activity ([3]; doses of 10 to 200 μM tested)
Oc1ccc(/C=C/c2cc(O)cc(O)c2)cc1 [Resveratrol, 3,5,4′-trihydroxy-trans-stilbene, reference compound] | 37 | 23.1 ± 0.14 | 15 | 36.9 ± 2.45 | 14.6 ± 0.12 | 69 ± 1.2 | complete inhibition | 5 | 45.23 | – | – | – | – | – | – | – | – | –
Oc1ccc(C#Cc2ccc(O)cc2)cc1 [KST-201, 4,4′-dihydroxytolan] | 22 | 10.5 ± 2.7 | 3.1 | 21.5 ± 7.35 | – | 82 ± 10 | – | – | – | 50 | 1.16 | 0.97 ± 0.02 | 0.98 | 21.5 ± 7.4 | 21.5 | 4.7 | about 20 fold | about 50%
